# In patent publication US20250163388A1, “METHODS FOR DERIVATION AND PROPAGATION OF AVIAN PLURIPOTENT STEM CELLS AND APPLICATIONS THEREOF” (UNIVERSITY OF SOUTHERN CALIFORNIA, priority 2022, published 2025):
# Where two headings read alike, the source gives them in different places.
# B1: chicken LIF: chicken leukemia inhibitory factor, SEQ ID NO: 2; yeast-derived recombinant (protein, listed as Gallus gallus)
# chain: MRLIPAGVVPFVALLLLQRRPVSGRALLGTSSACPTNGLCRANVLEQTRRQVALLNATAQDLFSLYLKCQGEPFSSESDRLCSPSGIFFPPFHVNRTTERKEVMVAMYKLFAFLNASLGNITRDQEELNPMAKELLNRLHNTTKTTRGLISNLTCLLCKHYNIFQVDVSYGESSKDKSAFKKKQQGCQVLRKYVQVIAQAARVLLPHLSPA
# B2: BMP4: a TGF-β superfamily ligand (protein, UniProt P12644 293-408, looked up)
# Bone morphogenetic protein 4: SPKHHSQRARKKNKNCRRHSLYVDFSDVGWNDWIVAPPGYQAFYCHGDCPFPLADHLNSTNHAIVQTLVNSVNSSIPKACCVPTELSAISMLYLDEYDKVVLKNYQEMVVEGCGCR
# Tests used:
# Type in all cases: cell-based
# [1] = test system: chicken blastodermal cells / chicken ESCs; test: Derivation and self-renewal culture of chicken ESCs from EGK.X blastodermal cells; conditions: for emergence of morphologically undifferentiated ESC colonies: EGK.X blastodermal cells from Rhode Island Red eggs, single supplement, FIG. 8A
# Protocol: (§1) Freshly laid avian fertile eggs at EGK.X-XII stages were kept at 16° C. before extraction. To harvest cells from yolk, a filter paper-based method was applied. Filter paper with a hole at center was placed on top of the embryo. The outer edge of the filter paper was cut together with the vitelline membranes. Embryo were then released from yolk together with the filter paper and washed in PBS solution. Next, embryo was transferred into a 15 ml tube free of the paper ring and dissociated by pipetting inside N2B27 medium. Dissociated cells were cultured in tissue plates coated with irradiated mouse embryonic fibroblast (MEF) cells as feeder layer. Basal medium used for routine ESC maintenance was N2B27 medium composed of Dulbecco's Modified Eagle Medium/Nutrient Mixture F-12 (DMEM/F12):Neuralbasal (1:1) plus 0.5×N2, 0.5×B27 supplement and 20 μg/ml ovotransferrin with the addition of 1× penicillin-streptomycin. Avian ESC self-renewal was kept with 2.5 μM IWR-1, 2 μM Gö6983, 2 μM SB431542 plus chicken LIF (10 ng/ml for ESCs and 40 ng/ml for other avian ESCs). ESCs were cultured at 38° C. in 5% CO2 with daily medium change. To passage, TrypLE was used to incubate the cells for 5 min and neutralized with basal medium in triple amount. Cells were handled with 5 ml pipette all the time to avoid dissociation into singles. Cells can be frozen in Cellbanker 2 and stored at −150° C.
# [2] = test system: avian ESCs; test: Self-renewal of avian ESCs (species not specified)
# Protocol: as §1
# [3] = test system: quail blastodermal cells / quail ESCs; test: Derivation and self-renewal culture of quail ESCs
# Protocol: We tested whether ESCs could be derived from other avian species in OT/2i. We isolated blastodermal cells from fertilized pheasant, duck and turkey eggs and cultured them in OT/2i. […] We examined whether blocking signaling pathways involved in cardiomyocyte differentiation from pluripotent stem cells could improve ESC self-renewal.
# as §1, with “ESCs were cultured at 38° C. in 5% CO2 with daily medium change. To passage, TrypLE was used to incubate the cells for 5 min and neutralized with basal medium in triple amount. Cells were handled with 5 ml pipette all the time to avoid dissociation into singles. Cells can be frozen in Cellbanker 2 and stored at −150° C.” left out
# [4] = test system: ostrich ESCs; test: Derivation and self-renewal culture of ostrich ESCs
# Protocol: as §1
# [5] = test system: avian ESCs; test: Induction of primordial germ cells (PGCs) from avian ESCs; conditions: data not shown
# Source text: Next, we assessed the potential of chicken ESCs to differentiate into the germ cell lineage. We generated EBs from chicken ESCs and examined the expression of germ cell markers including Dazl, Cvh, Cxcr4, Sycp3 and Stra8. […] To further investigate germ cell differentiation potential of chicken ESCs, we examined the expression of key primordial germ cell (PGC) marker, DAZL by immunofluorescence staining in both undifferentiated chicken ESCs and differentiated EBs. […] A subset of cells (1-3%) in day 3-4 EBs stained positive for DAZL (FIG. 6C). DAZL expression could also be detected inside goose ESC-derived EBs (FIG. 6C).
molecule,measurement,setting,value
"NC(=O)c1ccc(-c2nc(-c3ccc4c(c3)OCO4)c(-c3ccccn3)[nH]2)cc1 [SB431542, 4-[4-(2H-1,3-Benzodioxol-5-yl)-5-(pyridin-2-yl)-1H-imidazol-2-yl]benzamide]",chicken ESC self-renewal,[1],stabilize and proliferate chicken ESCs in long-term passages
same,self-renewal of avian ESCs,[2],does not promote the self-renewal
O=C(Nc1cccc2cccnc12)c1ccc(N2C(=O)[C@@H]3[C@H](C2=O)[C@@H]2C=C[C@H]3C2)cc1 [IWR-1],emergence of morphologically undifferentiated ESC colonies,[1],Morphologically undifferentiated ESC colonies emerged
human ortholog: human ortholog of ovotransferrin,chicken ESC self-renewal,[1],could not be replaced
human LIF: human leukemia inhibitory factor,quail ESC derivation and long-term self-renewal,[3],cannot be substituted
COc1ccc2c(c1)c(C1=C(c3c[nH]c4ccccc34)C(=O)NC1=O)cn2CCCN(C)C [Gö6983],emergence of morphologically undifferentiated ESC colonies,[1],Morphologically undifferentiated ESC colonies emerged
B1,quail ESC derivation and long-term self-renewal,[3],is necessary
same,chicken ESC self-renewal,[1],stabilize and proliferate chicken ESCs in long-term passages
same,"ostrich ESC derivation, maintenance and differentiation",[4],induced differentiation
same,"ostrich ESC derivation, maintenance and differentiation",[4]; listed as LIF,differentiating effect
B2,induction of PGCs,[5],did not respond
